Test results from patent US11071727B2, “Therapeutic targeting of proteolytic cleavage of the mixed lineage leukemia gene product (MLL1) by taspase1 using kinase inhibitors” (Northwestern University, priority 2018, dated 2021).

Legend:
[1] = test system: MLL1 cleavage by taspase1; experiment: in vitro taspase1 cleavage assay on lysates of pretreated taspase1 KO cells; type: biochemical, human; details: 293T taspase1 KO cells pretreated 30 hours with CX-4945 (3 μM) or TTP22 (10 μM), compared with DMSO control
Procedure: FIG. 5. CKII inhibitors selectively increase full-length MLL1 protein levels by decreasing the phosphorylation of MLL1 near the cleavage sites. (A) Conservation of the sequences flanking MLL1-CS2, MLL2 and TFIIA cleavage sites and phosphorylated serine and threonine residues after the cleavage sites (highlighted in red). (B) and (C) 293T cells were transfected with vector control (VT), WT, AA or DD reporter constructs of MLL1-p75 or TFIIA. Western blot was performed with anti-Flag antibody for MLL1 (p75: FL, p47: cleaved) or TFIIA (p54: FL, p47: cleaved). (D) and (E) 293T cells were transfected with WT or AA reporter constructs of MLL1-p75 or TFIIA in the presence or absence of HA-taspase1. Western blot was performed with anti-Flag antibody for MLL1 or TFIIA, or anti-HA antibody for taspase1. (F) 293T cells were infected with shRNAs against CKIIα or CKIIα′. Western blot was performed with anti-MLL1C antibody for MLL1 full-length protein levels, and CKIIα or CKIIα′ for knockdown efficiency. (G) 293T cells were treated with DMSO or 10 μM CX-4945 for 30 hours. Cells were harvested and lysed for Western blot against MLL1, MLL2 or TFIIA using β-tubulin as the loading control. […]
in vitro taspase1 cleavage assay. […] Cleavage efficiency was detected by western blot against MLL1C and TFIIA using Hsp90 as the loading control.

MLL1 = experiment: Western blot of full-length MLL1 protein levels in cells treated with CKII inhibitors; type: cell-based, human; details: 293T, MCF7 and HCT116 cells, 0-20 μM, 30 hours, Western blot with MLL1C antibody
Procedure: FIG. 5. CKII inhibitors selectively increase full-length MLL1 protein levels by decreasing the phosphorylation of MLL1 near the cleavage sites. (A) Conservation of the sequences flanking MLL1-CS2, MLL2 and TFIIA cleavage sites and phosphorylated serine and threonine residues after the cleavage sites (highlighted in red). (B) and (C) 293T cells were transfected with vector control (VT), WT, AA or DD reporter constructs of MLL1-p75 or TFIIA. Western blot was performed with anti-Flag antibody for MLL1 (p75: FL, p47: cleaved) or TFIIA (p54: FL, p47: cleaved). (D) and (E) 293T cells were transfected with WT or AA reporter constructs of MLL1-p75 or TFIIA in the presence or absence of HA-taspase1. Western blot was performed with anti-Flag antibody for MLL1 or TFIIA, or anti-HA antibody for taspase1. (F) 293T cells were infected with shRNAs against CKIIα or CKIIα′. Western blot was performed with anti-MLL1C antibody for MLL1 full-length protein levels, and CKIIα or CKIIα′ for knockdown efficiency. (G) 293T cells were treated with DMSO or 10 μM CX-4945 for 30 hours. Cells were harvested and lysed for Western blot against MLL1, MLL2 or TFIIA using β-tubulin as the loading control. (H) and (I) 293T taspase1 KO cells were pre-treated with CX-4945 (3 μM) or TTP22 (10 μM) for 30 hours. Whole cell lysates from the two conditions were incubated with increasing concentrations of his-taspase1 and subject to in vitro taspase1 assay.
FIG. 13. CKII inhibitors increase full-length MLL1 protein levels. (A) Prediction of kinases that phosphorylate MLL1 near the taspase1 cleavage site. (B) Structure of the CKII inhibitors CX-4945, TTP22, DMAT and TTB. (C) Comparison of the IC50 and molecular weight of the four CKII inhibitors. […] Quantification of the band intensities was performed by ImageJ software. (E) and (F) in vitro taspase1 cleavage assay. Taspase1 KO cell lysates were incubated with recombinant his-tagged taspase1 (0, 1, 10, 100 or 1000 ng) and subject to in vitro taspase1 cleavage assay. Cleavage efficiency was shown as the blotting for MLL1 and TFIIA using Hsp90 as the loading control.
Cell culture. […]

MLL1 chromatin occupancy = experiment: ChIP-seq of MLL1 occupancy in 293T cells; type: cell-based, human; details: relative to DMSO control
Procedure: FIG. 6. CKII inhibition increases genome-wide MLL occupancy and excludes SEC recruitment in MLL leukemia cells. (A) and (B) MLL1C occupancy in CX-4945 or TTP22 treated cells were shown relative to DMSO control. […] (C) Track examples of the MLL1 occupancy at the promoter regions of ELF2 and C6orf211. (D) CX-4945 inhibition of leukemia cell proliferation. Multiple MLL leukemia (orange lines) and non-MLL leukemia (blue lines) were cultured with different doses of CX-4945 for 3 days. Cell number was determined by cell counter and normalized to DMSO control. (E) SEM cells were treated with 0, 5 or 10 μM of CX-4945 for 30 hours and western blot was performed to determine the MLL1 full-length protein levels and MLL-AF4 fusion protein levels. (F) MLL-AFF1, AFF4 and ELL2 occupancies were decreased by CX-4945 treatment in SEM cells.
ChIP-seq Analysis. 5×10^7 cells were used for each ChIP assay, as performed as previously described (Chen et al. 2015). Peaks were called with MACS v1.4.2 (Zhang et al. 2008) using default parameters and were annotated by the HOMER software (Heinz et al. 2010). Metaplots were generated using ngsplot (Shen et al. 2014). […] Differential occupancy of MLL1 was evaluated by edgeR, and peaks with Benjamini-Hochburg adjusted p-values less than 0.05 were considered to be differentially occupied. […]

Cc1ccc(-c2csc3ncnc(SCCC(=O)O)c23)cc1 [TTP22, 3-[[5-(4-Methylphenyl)thieno[2,3-d]pyrimidin-4-yl]thio]propanoic acid]
cleavage efficiency by recombinant taspase1 protein [1]: cleavage efficiency was significantly diminished | MLL1 full-length protein levels (MLL1): dose-dependent increase of MLL1 full-length protein levels | MLL1 occupancy (genome-wide) (MLL1 chromatin occupancy): global increase of MLL1 occupancy
